According to patent publication US11180474B2 (BRISTOL-MYERS SQUIBB COMPANY, priority 2016, dated 2021):

Biological target: T1, human TLR8 (Homo sapiens, UniProt Q9NR97)
T1 construct: host or cells: HEK-Blue cells
T1 sequence (Q9NR97 27-1041): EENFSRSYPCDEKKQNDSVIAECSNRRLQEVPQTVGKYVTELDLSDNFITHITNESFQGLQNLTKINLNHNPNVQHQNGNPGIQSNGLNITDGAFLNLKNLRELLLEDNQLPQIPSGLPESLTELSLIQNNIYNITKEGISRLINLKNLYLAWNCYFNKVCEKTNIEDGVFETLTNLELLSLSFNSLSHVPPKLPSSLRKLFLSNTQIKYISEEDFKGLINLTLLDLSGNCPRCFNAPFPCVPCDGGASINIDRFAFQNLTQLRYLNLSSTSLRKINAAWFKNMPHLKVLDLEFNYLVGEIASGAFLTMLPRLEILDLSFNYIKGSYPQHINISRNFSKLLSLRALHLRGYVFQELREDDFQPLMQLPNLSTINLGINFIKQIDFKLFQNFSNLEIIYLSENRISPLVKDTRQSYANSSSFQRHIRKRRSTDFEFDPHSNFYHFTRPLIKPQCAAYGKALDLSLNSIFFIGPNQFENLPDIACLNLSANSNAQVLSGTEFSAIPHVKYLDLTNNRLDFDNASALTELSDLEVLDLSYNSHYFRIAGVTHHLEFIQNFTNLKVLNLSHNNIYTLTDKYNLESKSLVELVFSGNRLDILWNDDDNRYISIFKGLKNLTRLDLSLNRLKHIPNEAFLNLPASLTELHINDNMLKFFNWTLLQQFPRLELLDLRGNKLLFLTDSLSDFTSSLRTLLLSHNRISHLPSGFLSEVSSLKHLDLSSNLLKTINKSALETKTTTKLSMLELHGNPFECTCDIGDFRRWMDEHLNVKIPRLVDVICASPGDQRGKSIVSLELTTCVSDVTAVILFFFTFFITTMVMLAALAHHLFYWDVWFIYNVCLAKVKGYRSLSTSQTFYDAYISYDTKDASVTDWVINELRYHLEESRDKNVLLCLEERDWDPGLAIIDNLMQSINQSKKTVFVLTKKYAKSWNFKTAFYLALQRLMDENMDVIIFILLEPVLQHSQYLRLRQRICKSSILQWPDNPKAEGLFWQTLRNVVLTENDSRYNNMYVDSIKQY
Assay: TLR8 inhibition reporter assay (HEK-Blue cells, SEAP reporter, R848 stimulation)
Type: cell-based
Conditions: HEK-Blue cells overexpressing human TLR8, R848 15.9 μM
How it was run: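 In this cell reporter format, test compounds at 0.05 nM-50 μM final incubate 22 h with seeded cells (TLR7 15000, TLR8 20,000 per well). SEAP read-out by HEK-Blue Detection medium yields % inhibition relative to agonist/DMSO and known-inhibitor wells.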

IC50	SMILES
71 nM	CCN(CC)C(=O)C1CCCN(CC(=O)N2CCC(c3ccc4[nH]c(-c5ccc(OC)c(OC)c5)c(CC(F)(F)F)c4c3)CC2)C1 (centres unmarked) [Example 421, 1-(2-(4-(2-(3,4-dimethoxyphenyl)-3-(2,2,2-trifluoroethyl)-1H-indol-5-yl)piperidin-1-yl)-2-oxoethyl)-N,N-diethylpiperidine-3-carboxamide]
352 nM	COc1ccc(-c2[nH]c3ccc(C4CCN(C5CCCN(C)CC5)CC4)cc3c2C)cc1OC (centres unmarked) [Example 91, 2-(3,4-dimethoxyphenyl)-3-methyl-5-(1-(1-methylazepan-4-yl)piperidin-4-yl)-1H-indole]
510 nM	COc1ccc(-c2[nH]c3ccc(C4CCN(C5CCN(CCC(F)(F)F)CC5)CC4)cc3c2C)cc1OC [Example 50, 2-(3,4-dimethoxyphenyl)-3-methyl-5-(1′-(3,3,3-trifluoropropyl)-[1,4′-bipiperidin]-4-yl)-1H-indole]
317 nM	COc1ccc(-c2[nH]c3ccc(C4CCN(C5CCN(CC(C)(C)CO)CC5)CC4)cc3c2C)cc1OC [Example 69, 3-(4-(2-(3,4-dimethoxyphenyl)-3-methyl-1H-indol-5-yl)-[1,4′-bipiperidin]-1′-yl)-2,2-dimethylpropan-1-ol]
195 nM	COc1ccc(-c2[nH]c3ccc(C4CCN(C5CCN(Cc6cccs6)CC5)CC4)cc3c2C)cc1OC [Example 64, 2-(3,4-dimethoxyphenyl)-3-methyl-5-(1′-(thiophen-2-ylmethyl)-[1,4′-bipiperidin]-4-yl)-1H-indole]
238 nM	COc1ccc(-c2[nH]c3ccc(C4CCN(C5CCN(Cc6ccco6)CC5)CC4)cc3c2C)cc1OC [Example 76, 2-(3,4-dimethoxyphenyl)-5-(1′-(furan-2-ylmethyl)-[1,4′-bipiperidin]-4-yl)-3-methyl-1H-indole]
21100 nM	COc1ccc(-c2[nH]c3ccc(C4CCN(C(=O)CN5CCCN(C)CC5)CC4)cc3c2C)cc1OC [Example 410, 1-(4-(2-(3,4-dimethoxyphenyl)-3-methyl-1H-indol-5-yl)piperidin-1-yl)-2-(4-methyl-1,4-diazepan-1-yl)ethan-1-one]
196 nM	CCN1CCCC(N2CCC(c3ccc4[nH]c(-c5ccc(OC)c(OC)c5)c(C)c4c3)CC2)CC1 (centres unmarked) [Example 97, 2-(3,4-dimethoxyphenyl)-5-(1-(1-ethylazepan-4-yl)piperidin-4-yl)-3-methyl-1H-indole]
333 nM	COc1ccc(-c2[nH]c3ccc(C4CCN(C5CCN(CC(O)CO)CC5)CC4)cc3c2C)cc1OC (centres unmarked) [Example 52, 3-(4-(2-(3,4-dimethoxyphenyl)-3-methyl-1H-indol-5-yl)-[1,4′-bipiperidin]-1′-yl)propane-1,2-diol]
77 nM	CCN(CC)C(=O)C1CCCN(CC(=O)N2CCC(c3ccc4[nH]c(-c5ccc(OC)c(OC)c5)c(CC(F)(F)F)c4c3)CC2)C1 (centres unmarked) [Example 418, 1-(2-(4-(2-(3,4-dimethoxyphenyl)-3-(2,2,2-trifluoroethyl)-1H-indol-5-yl)piperidin-1-yl)-2-oxoethyl)-N,N-diethylpiperidine-3-carboxamide]
182 nM	COc1ccc(-c2[nH]c3ccc(C4CCN(C5CCN(C6CCCCC6)CC5)CC4)cc3c2C)cc1OC [Example 68, 5-(1′-cyclohexyl-[1,4′-bipiperidin]-4-yl)-2-(3,4-dimethoxyphenyl)-3-methyl-1H-indole]
